Laboratory results reported in US20230357248A1, “PYRROLOPYRIMIDINE COMPOUND AS BTK INHIBITOR AND USE THEREOF” (MEDSHINE DISCOVERY INC., priority 2019, published 2023).
≈ marks a conversion by molar mass, not a printed value.

Key:
[1] = system: xenograft tumor of human diffuse large B lymphoma TMD8; assay: Xenograft tumor model of TMD8 in SCID mouse; assay type: in vivo
Experimental: Xenograft tumor model of TMD8 in SCID mouse:
Assay method: A tumor model of subcutaneously transplanted human diffuse large B lymphoma in mice was established. Tumor cells in logarithmic growth phase were collected, counted, and then resuspended in RPMI1640. The cell suspension was adjusted to a concentration of 4×10^7/mL, and mixed well with Matrigel (1:1). Tumor cells were inoculated subcutaneously on the right back of the mouse with a 1 mL syringe ([…]), 4×10^6 cells/mouse. When the animal tumor reached about 100-300 mm^3, the tumor-bearing mice were randomly divided into 6 groups according to the size of the tumor volume, with 6 mice in each group. On the day of the assay, the animals were administered the corresponding drugs according to the corresponding groups. The first group G1 was set as a negative control group, which was administered 10% NMP/60% PEG400/30% H2O by gavage alone. The second group G2 was set as a positive control group, which was given reference example 1 (compound 005-1) at a dose of 30 mg/kg. The third group G3 was given compound 4 at a dose of 30 mg/kg, once a day, for a total of 15 days.
During the assay, animal weight and tumor size were measured 3 times a week, and clinical symptoms of animals were observed and recorded every day. Each dosing was referenced to the most recent animal weight.
For tumor measurement, length (a) and width (b) were measured with digital vernier calipers, and the calculation formula for tumor volume (TV) was: TV=a×b^2/2.

[2] = Assay of kinetic solubility; assay type: physicochemical; conditions: buffer solution, aqueous buffer, kinetic from dmso stock, pH 6.5 in table head (method says pH 7.4), 24 hours room temperature, theoretical maximum 200 μM
Experimental: The assay compound was dissolved in DMSO to prepare 10 mmol/L stock solution. 980 μL of dissolution medium was added to a 2 mL glass vial with a screw cap using a pipette (Eppendorf Research Company). […] The final concentrations of the assay compound and DMSO solution were 200 μM and 2%, respectively. The vias were capped. The theoretical maximum concentration was 200 μM. The mixture was shaken at 880 rpm at room temperature for 24 hours. The vials were centrifuged at 13,000 rpm for 30 minutes. 200 μL of supernatant was added to a 96-well plate using a digital pipette.

[3] = Pharmacokinetic evaluation in SD rat (intravenous); assay type: in vivo; conditions: about 0.5 mg/kg
Experimental: Assay purpose: To assay the pharmacokinetics of the compound in SD rat (intravenous)
Pharmacokinetic study of oral and intravenously injected compound 4 and reference example 1 in SD rat.
Compound 4 and reference example 1 were mixed with the solvent (10% NMP/60% PEG400/30% H2O). The mixture was vortexed and sonicated to prepare a clarified solution of 0.5 mg/mL. […] Whole blood was collected for a certain period of time to prepare the plasma. Drug concentration was analyzed by LC-MS/MS, and pharmacokinetic parameters were calculated by Phoenix WinNonlin software (Pharsight, USA).

[4] = Pharmacokinetic evaluation in SD rat (oral); assay type: in vivo; conditions: about 2 mg/kg
[5] = Plasma protein binding (PPB) assay, C; assay type: in vitro ADME; conditions: cynomolgus monkey, dialysis 4 hr 37° C.
Experimental: (§1) Assay procedure: 995 μL of blank plasma of various genera were weighed, and 5 μL of assay compound working solution (400 μM) or warfarin working solution (400 μM) was added so that the final concentrations of the assay compound and warfarin in plasma sample were each 2 μM. The samples were mixed thoroughly. The final concentration of DMSO (the organic phase) was 0.5%. 50 μL of the plasma samples of the assay compound and warfarin were pipetted to a sample receiving plate (in triplicate), and the corresponding volume of corresponding blank plasma or buffer was added immediately, so that the final volume in each sample well was 100 μL, wherein the volume ratio of plasma:dialysis buffer was 1:1. 500 μL of stop solution was then added to these samples. These samples were used as T0 samples for determination of recovery and stability. […] All samples were subjected to protein precipitation, and then analyzed by LC/MS/MS. Bound rate and recovery rate of protein were calculated using the following formulae: % Unbound=100*F/T, % Bound=100−% Unbound, % Recovery=100*(F+T)/T0 (wherein F is the peak area ratio of the compound in the dialysate after 4 h of dialysis; T is the peak area ratio of the compound in the plasma after 4 h of dialysis; To is the peak area ratio of the compound in the plasma sample at time zero).

[6] = Plasma protein binding (PPB) assay, R; assay type: in vitro ADME; conditions: rat, dialysis 4 hr 37° C.
Experimental: as §1

[7] = TMD8 xenograft in SCID mouse, 30 mg/kg PO, QD × 15, 14th day
[8] = AUCu = AUC0-inf * Unbound PPB (in vivo assay of PPB in rat)

solubility at 24 h [2]: 1.1 µM (≈ 0.56 µg/mL)
AUCu [3, 8]: 0.0034 µM·h
AUC(0-inf) ([3]; male, plasma): 1.7 µM·h
C0 ([3]; male, plasma): 852 nM
Vd ([3]; male, plasma): 1.42 L/kg
clearance ([3]; male, plasma): 9.8 mL/min/kg
half-life ([3]; male, plasma): 1.82 h
AUCu [4, 8]: 0.0078 µM·h
AUC(0-inf) ([4]; male, plasma): 3.89 µM·h
Cmax ([4]; male, plasma): 587 nM
bioavailability ([4]; male, plasma): 57.3%
half-life ([4]; male, plasma): 2.33 h
fraction unbound at 4 h, 2 μM [5]: 0.001
fraction unbound at 4 h, 2 μM [6]: 0.002
Structure (SMILES): CO[C@@H]1C[C@@H](CO)OC[C@@H]1Nc1ncnc2[nH]cc(C(=O)c3ccc(Oc4ccccc4)cc3Cl)c12 [Compound 4]
inhibitory effect on xenograft tumor of human diffuse large B lymphoma TMD8 in mouse (in words) ([1]; 30 mg/kg once a day): a certain inhibitory effect
relative tumor proliferation rate T/C ([1]; 5th day, 30 mg/kg once a day): 66.33%
relative tumor proliferation rate ([1]; 14th day, 30 mg/kg once a day): 21.53%
tumor volume inhibition rate TGI (%) ([1]; 14th day, 30 mg/kg once a day): 79.04%
Tumor volume inhibition rate TGI [1, 7]: 79.04%
relative tumor proliferation rate T/C [1, 7]: 21.53%
